Experimental data reported in PMC8230565, “Bisavenathramide Analogues as Nrf2 Inductors and Neuroprotectors in In Vitro Models of Oxidative Stress and Hyperphosphorylation” (Antioxidants, 2021).

Assays:
SH-SY5Y cells [1] = experiment: Neuroprotection against rotenone/oligomycin A in SH-SY5Y cells (MTT); type: cell-based; conditions: Homo sapiens, 24 h, 1 µM compound, rotenone 30 µM + oligomycin A 10 µM, read-out: % Neuroprotection ± SEM at 1 µM (rotenone/oligomycin A)
Protocol: To evaluate the compounds for their neuroprotective effect in an oxidative stress model, we selected the rotenone (30 μM) and oligomycin A (10 μM) (R/O) cocktail, which disturbs the flow of electrons in the mitochondrial respiratory chain. Similarly, SH-SY5Y cells were preincubated with compounds 3 at 1 μM for 24 h. Then, they were co-incubated in the presence of R/O for a further 24 h, evaluating cell viability by the MTT reduction method.
Thus, the R/O combination constitutes a good model of oxidative stress and neurodegeneration with a mitochondrial origin, and has been broadly employed to evaluate potential hit compounds for the treatment of neurodegenerative diseases. Furthermore, treatment of laboratory animals with rotenone is known to induce many features associated to Parkinson’s disease, such as selective nigrostriatal dopaminergic degeneration and the appearance of α-synuclein cytoplasmic inclusions, which are associated with oxidative damage.

SH-SY5Y cells [2] = experiment: Neuroprotection against okadaic acid in SH-SY5Y cells (MTT); type: cell-based; conditions: for % neuroprotection against okadaic acid at 1 µM: Homo sapiens, SH-SY5Y, 18 h, 1 µM compound, okadaic acid 20 nM, read-out: % Neuroprotection ± SEM at 1 µM (okadaic acid)
Protocol: Neuroprotection studies against tau hyperphosphorylation exerted by okadaic acid (OA) were evaluated using the SH-SY5Y cell line as follows. […] After 18 h, cell viability was addressed by the MTT reduction method. MTT (5 mg/mL, 10 μL/well) was added and incubated for 2 h. Then, the medium was removed and the purple formazan crystals formed by viable cells were dissolved using 100 μL of DMSO. A FluoStar Optima spectrophotometer (BMG Labtech, Ortenberg, Baden-Württemberg, Germany) was used to measure the absorbance at 570 nm.
Okadaic acid is a potent inhibitor of protein phosphatase 2A (PP2A), thereby inducing tau hyperphosphorylation. For this reason, it can be employed as a model of neurodegenerative-disease-connected tau hyperphosphorylation, a well-known feature of Alzheimer’s disease, but present also in other NDDs, collectively known as tauopathies and characterized by the pathological aggregation of hyperphosphorylated tau in neurofibrillary tangles. […] Tau hyperphosphorylation is connected to oxidative stress, which activates p38 and deactivates calcineurin, a phosphatase involved in tau dephosphorylation by increasing RCAN1, its natural repressor [34, 35]. Indeed, hyperphosphorylation and oxidative stress have been proposed to generate a vicious circle that is critical to the advance of neurodegenerative tauopathies.

[3] = Ferric reducing antioxidant power (FRAP) assay; set-up: key to FRAP TEAC: trolox equivalents (TEAC), relative to trolox; conditions: for FRAP nmol Fe2+ at 30 µM: 30 µM compound, n in brackets; for FRAP TEAC: 30 µM, relative to trolox
Protocol: A ferric reducing antioxidant power (FRAP) kit assay purchased from Sigma-Aldrich (Madrid, Spain) was employed for the experiments. The antioxidant solutions, FRAP assay buffer solution, FeCl3 solution, and FRAP probe solution were kept in ice during the preparation of the plate. A calibration standard curve was prepared by using the 2 mM ferrous standard solution provided in the FRAP kit assay. Appropriate aliquots of this solution were taken and diluted up to a 200 μL final volume with FRAP buffer. The final ferrous concentrations measured in the well were: 0, 20, 40, 60, 80, and 100 μM. Each concentration value was prepared and measured by triplicate. Stock solutions of compounds 3, as well as reference compounds trolox and ferulic acid, were freshly prepared in 95% ethanol at […]. Aliquots of 10 μL of compounds 3 and the reference compounds were mixed with 19 μL FeCl3 solution and 19 μL FRAP probe solution, and then completed to a final volume of 200 μL with FRAP assay buffer solution. The final concentration of antioxidants and references was 30 μM. Compounds 3, reference compounds, as well as the corresponding blank solutions (one for each compound to be assayed, avoiding the chromogenic FRAP probe), and positive control were thoroughly mixed in vortex for 1–2 min with the reaction chromogenic media, and then were incubated under darkness at 37 °C in the dry bath, and using the device for support well-plates. Each compound to be assayed and the reference antioxidant compounds were prepared and measured by triplicate. The absorbance values were measured at 594 nm after 5 min of reaction and, to assure complete reaction, the absorbance values after 60 min of incubation at 37 °C in the dry bath were also measured. The absorbance values of the sample antioxidant compounds were corrected by subtracting the corresponding absorbance values of the blanks, and then they were introduced in the calibration curve and the ferrous equivalents were determined. The reference antioxidants employed for this assay were trolox and ferulic acid, which were obtained from Sigma-Aldrich (Madrid, Spain). Ultrapure water was obtained from a Milli-Q Direct 8 system (Millipore, Molsheim, France).
In order to achieve a broader insight into the antioxidant profile of our compounds, we also examined them using a single electron transfer (SET)-based method, namely the ferric reducing antioxidant power (FRAP) assay, which measures the ability of an antioxidant to reduce the ferric ion in the TPTZ (2,4,6-tri(2-pyridyl)-1,3,5-triazine)-Fe(III) complex.

[4] = DPPH radical scavenging assay; conditions: for DPPH Scavenging at 0.1 mM, %: 0.1 mM compound; for DPPH Scavenging at 1 mM, %: 1 mM compound; for IC50: n in brackets
Protocol: The direct antioxidant effects of compounds 3 were investigated by studying their radical-scavenging effect on the 2,2-diphenyl-1-picrylhydrazyl free radical (DPPH^•). Thus, a 100 μL volume of a methanol solution of each compound was added to 200 μL of 100 μM methanolic DPPH^•, and the solution was kept in the dark at 37 °C for 30 min in a 96-well microliter plate. After this incubation, the absorption at 490 nm of each solution was measured with a microplate reader in order to quantitate its decrease. A blank reading was also taken to calculate the amount of remaining DPPH^•. The radical-scavenging activity exerted by compounds 3 was determined by comparison with a 10 μL of MeOH-treated blank group. Ascorbic acid, a well-known antioxidant acting as a radical scavenger, was used as reference. All samples were analyzed in triplicate. Percent inhibition of the DPPH^• radical was calculated using the equation shown below, where AbsCtrl is the absorbance of the blank group and Abss is the absorbance of the samples containing compounds 3. For each compound showing a percentage of inhibition above 60%, the IC50 value was determined using a dose–response curve obtained from measurements corresponding to at least six concentrations. %Scavenger=AbsCtrl−AbsS/AbsCtrl×100
The radical scavenging activity of all compounds was first studied by the DPPH assay, which measures the ability of antioxidant compounds to donate a hydrogen atom to the violet 2,2-diphenyl-1-picrylhydrazyl radical and transform it into a nonradical species. Thus, it is generally considered to belong to the hydrogen atom transfer (HAT) category of methods for measurement of antioxidant activity.

Structure (SMILES)	% neuroprotection against rotenone/oligomycin A toxicity at 1 µM (SH-SY5Y cells [1])	% neuroprotection against okadaic acid at 1 µM (SH-SY5Y cells [2])	FRAP nmol Fe2+ at 30 µM [3]	FRAP TEAC [3]	DPPH Scavenging at 0.1 mM, % [4]	DPPH Scavenging at 1 mM, % [4]	IC50 [4]	level of neuroprotection compared with melatonin / in words (okadaic acid) (SH-SY5Y cells [2]; 1 µM)	radical scavenging activity in the DPPH assay [4]
COC(=O)C1=C(C)N(Cc2ccccc2)C(=O)/C1=C\c1ccc(OC)cc1 [Compound 3b, Methyl (Z)-1-Benzyl-4-(4-methoxybenzylidene)-2-methyl-5-oxo-4,5-dihydro-1H-pyrrole-3-carboxylate]	68 ± 31.5%	54.1 ± 14.3%	1.44 ± 0.02 (3) nmol Fe^2+	0.63	6.5 ± 4.5%	27.2 ± 6.4%	–	–	–
COC(=O)C1=C(C)N(Cc2ccccc2)C(=O)/C1=C\c1ccc(Cl)cc1 [Compound 3c, Methyl (Z)-1-Benzyl-4-(4-chlorobenzylidene)-2-methyl-5-oxo-4,5-dihydro-1H-pyrrole-3-carboxylate]	> 90%	52.8 ± 9.96%	1.41 ± 0.03 (3) nmol Fe^2+	0.62	3.7 ± 3.8%	36.6 ± 3.4%	–	–	–
COC(=O)C1=C(C)N(CCc2ccccc2)C(=O)/C1=C\c1ccc(OCc2ccccc2F)c(OC)c1 [Compound 3j, Methyl (Z)-4-[4-((2-Fluorobenzyl)oxy)-3-methoxybenzylidene]-2-methyl-5-oxo-1-phenethyl-4,5-dihydro-1H-pyrrole-3-carboxylate]	51.2 ± 15.5%	31.8 ± 15.2%	1.60 ± 0.04 (3) nmol Fe^2+	0.70	4.3 ± 2.1%	31.3 ± 3.3%	–	–	–
COC(=O)C1=C(C)N(CCc2ccccc2)C(=O)/C1=C\c1ccc2c(c1)OCO2 [Compound 3d, Methyl (Z)-4-(Benzo[d](1,3)dioxol-5-ylmethylene)-2-methyl-5-oxo-1-phenethyl-4,5-dihydro-1H-pyrrole-3-carboxylate]	49.8 ± 9.46%	52.7 ± 17.2%	1.41 ± 0.04 (3) nmol Fe^2+	0.62	40.5 ± 5.0%	41.6 ± 4.1%	–	–	–
COC(=O)C1=C(C)N(CCc2ccccc2)C(=O)/C1=C\c1ccc(OC)cc1OC [Compound 3e, Methyl (Z)-4-(2,4-Dimethoxybenzylidene)-2-methyl-5-oxo-1-phenethyl-4,5-dihydro-1H-pyrrole-3-carboxylate]	50.3 ± 16.3%	62.8 ± 8%	1.44 ± 0.01 (3) nmol Fe^2+	0.63	6.33 ± 4.2%	27.0 ± 2.6%	–	–	–
COC(=O)C1=C(C)N(Cc2ccccc2)C(=O)/C1=C\c1ccccc1 [Compound 3a, Methyl (Z)-1-Benzyl-4-benzylidene-2-methyl-5-oxo-4,5-dihydro-1H-pyrrole-3-carboxylate]	44.3 ± 13.6%	68 ± 22%	–	0.62	9.7 ± 3.8%	47.5 ± 4.9%	–	–	–
COC(=O)C1=C(C)N(CCc2ccc(OC)c(OC)c2)C(=O)/C1=C\c1ccc(OCc2ccccc2Cl)c(OC)c1 [Compound 3n, Methyl (Z)-4-[4-((2-Chlorobenzyl)oxy)-3-methoxybenzylidene]-1-(3,4-dimethoxyphenethyl)-2-methyl-5-oxo-4,5-dihydro-1H-pyrrole-3-carboxylate]	69.4 ± 23.9%	61.4 ± 15.8%	1.59 ± 0.02 (3) nmol Fe^2+	0.69	12.7 ± 3.5%	73.6 ± 0.7%	552 ± 17.4 µM	–	–
COC(=O)C1=C(C)N(CCc2ccccc2)C(=O)/C1=C\c1cc(OC)c(OC)cc1OC [Compound 3f, Methyl (Z)-2-Methyl-5-oxo-1-phenethyl-4-(2,4,5-trimethoxybenzylidene)-4,5-dihydro-1H-pyrrole-3-carboxylate]	51 ± 16.9%	48.3 ± 11%	1.42 ± 0.04 (3) nmol Fe^2+	0.62	9.7 ± 0.6%	9.7 ± 2.2%	–	–	–
COC(=O)C1=C(C)N(CCc2ccccc2)C(=O)/C1=C\c1ccc(OCc2ccccc2Cl)c(OC)c1 [Compound 3k, Methyl (Z)-4-[4-((2-Chlorobenzyl)oxy)-3-methoxybenzylidene]-2-methyl-5-oxo-1-phenethyl-4,5-dihydro-1H-pyrrole-3-carboxylate]	60.3 ± 20.9%	57.1 ± 22.3%	1.63 ± 0.01 (3) nmol Fe^2+	0.71	7.3 ±1.4%	27.3 ± 1.0%	–	–	–
COC(=O)C1=C(C)N(CCc2ccccc2)C(=O)/C1=C\c1ccc(OC)c(O)c1 [Compound 3h, Methyl (Z)-4-(3-Hydroxy-4-methoxybenzylidene)-2-methyl-5-oxo-1-phenethyl-4,5-dihydro-1H-pyrrole-3-carboxylate]	46.2 ± 18.9%	81.9 ± 28.5%	1.63 ± 0.04 (3) nmol Fe^2+	0.71	89.0 ± 0.4%	–	26.3 ± 2.1 µM	excellent neuroprotection	high radical scavenging activity
